How the values were obtained:
Type in all cases: functional
[1] = test system: Rattus norvegicus; test: Antiallergic activity in anti-egg albumin homocytotropic antibody-sensitized Sprague-Dawley rat assessed as inhibition of passive cutaneous anaphylaxis reaction at 50 mg/kg, po administered 60 mins prior to antigen egg albumin challenge
[2] = test system: Rattus norvegicus; test: Antiallergic activity in anti-egg albumin homocytotropic antibody-sensitized Sprague-Dawley rat assessed as inhibition of passive cutaneous anaphylaxis reaction at 50 mg/kg, po administered 20 mins prior to antigen egg albumin challenge
[3] = test system: Rattus norvegicus; test: Antiallergic activity in anti-egg albumin homocytotropic antibody-sensitized Sprague-Dawley rat assessed as inhibition of passive cutaneous anaphylaxis reaction at 50 mg/kg, po administered 120 mins prior to antigen egg albumin challenge
[4] = test system: Rattus norvegicus; test: Antiallergic activity in anti-egg albumin homocytotropic antibody-sensitized Sprague-Dawley rat assessed as inhibition of passive cutaneous anaphylaxis reaction at 50 mg/kg, po administered 5 mins prior to antigen egg albumin challenge
[5] = test system: Rattus norvegicus; test: Antiallergic activity in anti-egg albumin homocytotropic antibody-sensitized Sprague-Dawley rat assessed as time of peak action for inhibition of passive cutaneous anaphylaxis reaction at 50 mg/kg, po administered prior to antigen egg albumin challenge
[6] = test system: Rattus norvegicus; test: Antiallergic activity in anti-egg albumin homocytotropic antibody-sensitized Sprague-Dawley rat assessed as inhibition of passive cutaneous anaphylaxis reaction at 50 mg/kg, po administered prior to antigen egg albumin challenge
[7] = test system: Rattus norvegicus; test: Antiallergic activity in anti-egg albumin homocytotropic antibody-sensitized Sprague-Dawley rat assessed as inhibition of passive cutaneous anaphylaxis reaction at 1 mg/kg, iv administered at the time of antigen egg albumin challenge
[8] = test system: Rattus norvegicus; test: Antiallergic activity in anti-egg albumin homocytotropic antibody-sensitized Sprague-Dawley rat assessed as inhibition of passive cutaneous anaphylaxis reaction at 0.1 mg/kg, iv administered at the time of antigen egg albumin challenge
[9] = test system: Rattus norvegicus; test: Antiallergic activity in anti-egg albumin homocytotropic antibody-sensitized Sprague-Dawley rat assessed as inhibition of passive cutaneous anaphylaxis reaction at 0.01 mg/kg, iv administered at the time of antigen egg albumin challenge
[10] = test system: Rattus norvegicus; test: Antiallergic activity in anti-egg albumin homocytotropic antibody-sensitized Sprague-Dawley rat assessed as inhibition of passive cutaneous anaphylaxis reaction at 0.001 mg/kg, iv administered at the time of antigen egg albumin challenge
[11] = test system: Rattus norvegicus; test: Antiallergic activity in anti-egg albumin homocytotropic antibody-sensitized Sprague-Dawley rat assessed as inhibition of passive cutaneous anaphylaxis reaction at 10 mg/kg, po administered 20 mins prior to antigen egg albumin challenge
[12] = test system: Rattus norvegicus; test: Antiallergic activity in anti-egg albumin homocytotropic antibody-sensitized Sprague-Dawley rat assessed as inhibition of passive cutaneous anaphylaxis reaction at 10 mg/kg, po administered 5 mins prior to antigen egg albumin challenge
[13] = test system: Rattus norvegicus; test: Antiallergic activity in anti-egg albumin homocytotropic antibody-sensitized Sprague-Dawley rat assessed as inhibition of passive cutaneous anaphylaxis reaction at 10 mg/kg, po administered 60 mins prior to antigen egg albumin challenge

| SMILES | inhibition in vivo at 50 mg/kg [1] [%] | inhibition in vivo at 50 mg/kg [2] [%] | inhibition in vivo at 50 mg/kg [4] [%] | inhibition in vivo at 1 mg/kg [7] [%] | inhibition in vivo at 0.1 mg/kg [8] [%] | further results |
| --- | --- | --- | --- | --- | --- | --- |
| CCOC(=O)C(=O)Nc1cccc(NC(=O)C(=O)OCC)c1F | 0 | – | – | – | – | – |
| CCOC(=O)C(=O)Nc1cccc(NC(=O)C(=O)OCC)c1C(=O)OC | 15 | 27 | – | – | – | inhibition in vivo at 50 mg/kg [3]: 0% |
| CCOC(=O)C(=O)Nc1cc(NC(=O)C(=O)OCC)cc(NC(=O)C(=O)OCC)c1 | 5 | 0 | – | – | – | inhibition in vivo at 50 mg/kg [3]: 0% |
| CCOC(=O)C(=O)Nc1cc(S(C)(=O)=O)cc(NC(=O)C(=O)OCC)c1Cl | 0 | 0 | 0 | – | – | – |
| CCCCCCOC(=O)C(=O)Nc1cc(C#N)cc(NC(=O)C(=O)OCCCCCC)c1Cl | – | – | – | – | – | Time [5]: 5 min; inhibition in vivo at 50 mg/kg [6]: 51% |
| NC(=O)c1cc(NC(=O)C(=O)O)c(Cl)c(NC(=O)C(=O)O)c1 | – | – | – | 90 | 28 | inhibition in vivo at 0.01 mg/kg [9]: 0% |
| CCOC(=O)C(=O)Nc1cc(C#N)c(Cl)c(NC(=O)C(=O)OCC)c1 | 0 | 20 | 100 | – | – | – |
| CC(=O)Nc1cc(NC(=O)C(=O)O)cc(NC(=O)C(=O)O)c1 | – | – | – | 47 | 11 | inhibition in vivo at 0.01 mg/kg [9]: 0% |
| NC(=O)c1cc(NC(=O)C(=O)O)cc(NC(=O)C(=O)O)c1 | – | – | – | 91 | 17 | – |
| CCOC(=O)C(=O)Nc1ccc(F)c(NC(=O)C(=O)OCC)c1 | 18 | 64 | 74 | – | – | – |
| O=C(O)C(=O)Nc1ccc(F)c(NC(=O)C(=O)O)c1 | – | – | – | 100 | 41 | – |
| CCOC(=O)C(=O)Nc1cc(-c2ccccc2)cc(NC(=O)C(=O)OCC)c1Cl | – | 25 | 25 | – | – | – |
| CCCCc1ccc(NC(=O)C(=O)OCC)cc1NC(=O)C(=O)OCC | 5 | 0 | 0 | – | – | inhibition in vivo at 50 mg/kg [3]: 0% |
| O=C(O)C(=O)Nc1cccc(NC(=O)C(=O)O)c1Cl | – | – | – | 75 | 32 | – |
| COc1ccc(NC(=O)C(=O)O)cc1NC(=O)C(=O)O | – | – | – | 100 | 0 | – |
| CCOC(=O)C(=O)Nc1cc(C(=O)OC)c(Cl)c(NC(=O)C(=O)OCC)c1Cl | 0 | 0 | – | – | – | inhibition in vivo at 50 mg/kg [3]: 0% |
| N#Cc1cc(NC(=O)C(=O)O)ccc1NC(=O)C(=O)O | – | – | – | 45 | – | – |
| O=C(O)C(=O)Nc1cc(C(F)(F)F)cc(NC(=O)C(=O)O)c1Cl | – | – | – | – | 100 | inhibition in vivo at 0.001 mg/kg [10]: 0%; inhibition in vivo at 0.01 mg/kg [9]: 90% |
| CCOC(=O)C(=O)Nc1cc(C#N)cc(NC(=O)C(=O)OCC)c1 | – | – | – | – | – | inhibition in vivo at 10 mg/kg [11]: 25%; inhibition in vivo at 10 mg/kg [12]: 95%; inhibition in vivo at 10 mg/kg [13]: 0% |
| CCOC(=O)C(=O)Nc1cc(NC(=O)C(=O)OCC)c(Cl)cc1Cl | 25 | 50 | – | – | – | – |
| CCOC(=O)C(=O)Nc1cc(NC(C)=O)cc(NC(=O)C(=O)OCC)c1 | 0 | 1 | 6 | – | – | inhibition in vivo at 50 mg/kg [3]: 24% |
| O=C(O)C(=O)Nc1cc(-c2ccccc2)cc(NC(=O)C(=O)O)c1Cl | – | – | – | 94 | 87 | inhibition in vivo at 0.01 mg/kg [9]: 44% |
| O=C(O)C(=O)Nc1ccc(NC(=O)C(=O)O)cc1 | – | – | – | 18 | – | – |
| CCOC(=O)C(=O)Nc1cc(NC(=O)C(=O)OCC)c(Cl)c(-c2ccccc2)c1 | 51 | 10 | 72 | – | – | – |
| CCOC(=O)C(=O)Nc1cc(C(=O)O)cc(NC(=O)C(=O)OCC)c1Cl | 15 | 41 | 15 | – | – | inhibition in vivo at 50 mg/kg [3]: 9% |
| CCCCOC(=O)C(=O)Nc1cc(C#N)cc(NC(=O)C(=O)OCCCC)c1Cl | – | – | – | – | – | Time [5]: 5 min; inhibition in vivo at 50 mg/kg [6]: 100% |

Reference: ChEMBL document CHEMBL3244076, “N,N'-(Phenylene)dioxamic acids and their esters as antiallergy agents” (1978)
